According to paper PMC6364417, “Kinase inhibitor library screening identifies synergistic drug combinations effective in sensitive and resistant melanoma cells” (Journal of Experimental & Clinical Cancer Research : CR, 2019):

Experiments:
Assay in all cases: Kinase inhibitor library screening, PrestoBlue cell viability, 1 or 10 μM, 72 h
501Mel cells (parental) = conditions: 501Mel Parental, in %; for Cell viability in kinase inhibitor library screening, 501Mel Parental, 1μΜ / Cell viability in kinase inhibitor library screening, 501Mel Parental, 10μΜ: 72 h
Procedure: (§1) After 72 h of treatment, cell viability was assessed using the PrestoBlue Cell Viability Reagent (ThermoFisher Scientific). Measurements were performed with the CLARIOstar Monochromator microplate reader (BMG Labtech).
(§2) Kinase inhibitor library screening. […] Each cell line was treated in its sensitive form (parental), and also as 2 resistant derivatives, which were made resistant to either Vemurafenib (XP) or Dabrafenib (GP). Drugs were added at 2 different concentrations, 1 and 10 μM, for 72 h and cell viability was assessed using the PrestoBlue Cell Viability assay. Results are depicted as % viability compared to untreated cells. Each cell line was analyzed at least in duplicate. […] (XLSX 95 kb)

[1] = tested on: 501Mel-XP cells (Vemurafenib-resistant); conditions: 501Mel XP, in %
Procedure: as §1, §2

[2] = tested on: IGR37-XP cells (Vemurafenib-resistant); conditions: IGR37 XP; for Cell viability in kinase inhibitor library screening, IGR37 XP, 10μΜ / Cell viability in kinase inhibitor library screening, IGR37 XP, 1μΜ / cell viability, IGR37 XP, 10μΜ / cell viability, IGR37 XP, 1μΜ: 72 h; for Cell viability in kinase inhibitor library screening, IGR37 XP, 1μΜ / cell viability (kinase inhibitor library screening) / cell viability, IGR37 XP, 1μΜ: in %
Procedure: as §1, §2

[3] = tested on: A375-XP cells (Vemurafenib-resistant); conditions: A375 XP
Procedure: as §1, §2

[4] = tested on: 501Mel-GP cells (Dabrafenib-resistant); conditions: 501Mel GP, in %; for Cell viability in kinase inhibitor library screening, 501Mel GP, 1μΜ / Cell viability in kinase inhibitor library screening, 501Mel GP, 10μΜ / cell viability, 501Mel GP, 1μΜ / cell viability, 501Mel GP, 10μΜ: 72 h
Procedure: as §1, §2

A375 cells (parental) = conditions: A375 Parental
Procedure: as §1, §2

[5] = tested on: IGR37-GP cells (Dabrafenib-resistant); conditions: IGR37 GP
Procedure: as §1, §2

[6] = tested on: A375-GP cells (Dabrafenib-resistant); conditions: A375 GP
Procedure: as §1, §2

IGR37 cells (parental) = conditions: IGR37 Parental, 72 h, in %
Procedure: as §1, §2

SMILES	Cell viability in kinase inhibitor library screening, 501Mel Parental, 1μΜ (501Mel cells (parental); 1μΜ)	Cell viability in kinase inhibitor library screening, 501Mel Parental, 10μΜ (501Mel cells (parental))	Cell viability in kinase inhibitor library screening, 501Mel XP, 1μΜ ([1]; 1μΜ, 72 h)	Cell viability in kinase inhibitor library screening, IGR37 XP, 10μΜ ([2]; 10μΜ)	Cell viability in kinase inhibitor library screening, IGR37 XP, 1μΜ ([2]; 1μΜ)	Cell viability in kinase inhibitor library screening, 501Mel GP, 1μΜ ([4]; 1μΜ)	Cell viability in kinase inhibitor library screening, 501Mel GP, 10μΜ ([4]; 10μΜ)	Cell viability in kinase inhibitor library screening, IGR37 GP, 10μΜ ([5]; 72 h)	cell viability, 501Mel XP, 1μΜ ([1]; 1μΜ, 72 h)	cell viability, 501Mel XP, 10μΜ ([1]; 10μΜ, 72 h)	cell viability, IGR37 XP, 10μΜ ([2]; 10μΜ)	cell viability, IGR37 XP, 1μΜ ([2]; 1μΜ)	cell viability, IGR37 Parental, 10μΜ (IGR37 cells (parental); 10μΜ)	cell viability, A375 XP, 1μΜ ([3]; 1μΜ, 72 h, in %)	cell viability, 501Mel GP, 1μΜ ([4]; 1μΜ)	cell viability, 501Mel GP, 10μΜ ([4]; 10μΜ)	cell viability, A375 Parental, 10μΜ (A375 cells (parental); 10μΜ, 72 h, in %)	cell viability, IGR37 GP, 10μΜ ([5]; 72 h)	cell viability, IGR37 GP, 1μΜ ([5]; 1μΜ, 72 h, in %)	cell viability, A375 GP, 1μΜ ([6]; 1μΜ, 72 h, in %)	also measured
O=c1c(O)c(-c2ccc(O)c(O)c2)oc2cc(O)cc(O)c12 [Quercetin (Sophoretin)]	99.7	94.0	90.4	58.7%	99.1	98.5	87.4	78.8%													Cell viability in kinase inhibitor library screening, 501Mel XP, 10μΜ ([1]; 10μΜ, 72 h): 65.0; Cell viability in kinase inhibitor library screening, A375 XP, 10μΜ ([3]; 10μΜ, 72 h): 96.9; Cell viability in kinase inhibitor library screening, A375 Parental, 10μΜ (A375 cells (parental); 10μΜ, 72 h): 94.2; Cell viability in kinase inhibitor library screening, A375 Parental, 1μΜ (A375 cells (parental); 1μΜ, 72 h): 97.7; Cell viability in kinase inhibitor library screening, A375 GP, 10μΜ ([6]; 10μΜ, 72 h): 87.9
Cc1[nH]c(/C=C2\C(=O)Nc3ccccc32)c(C)c1CCC(=O)O [TSU-68]																					cell viability (kinase inhibitor library screening) (501Mel cells (parental); 1μΜ): 103.3; cell viability (kinase inhibitor library screening) ([1]; 1μΜ): 99.9; cell viability (kinase inhibitor library screening) ([1]; 10μΜ): 80.9; cell viability (kinase inhibitor library screening) ([2]; 1μΜ): 95.2; cell viability (kinase inhibitor library screening) ([2]; 10μΜ): 76.8; cell viability (kinase inhibitor library screening) ([3]; 1μΜ, in %): 108.6; cell viability (kinase inhibitor library screening) ([3]; 10μΜ, in %): 103.8; cell viability (kinase inhibitor library screening) ([4]; 1μΜ): 108.8; cell viability (kinase inhibitor library screening) ([4]; 10μΜ): 99.1; cell viability (kinase inhibitor library screening) (A375 cells (parental); 1μΜ, in %): 114.1; cell viability (kinase inhibitor library screening) (A375 cells (parental); 10μΜ, in %): 107.4; cell viability (kinase inhibitor library screening) ([5]; 1μΜ, in %): 97.4; cell viability (kinase inhibitor library screening) ([6]; 1μΜ, in %): 113.8; cell viability (kinase inhibitor library screening) ([6]; 10μΜ, in %): 94.6
C[C@@H]1CCN(C(=O)CC#N)C[C@@H]1N(C)c1ncnc2[nH]ccc12 [Tofacitinib (CP-690550, Tasocitinib)]									94.3	92.6	71.2%	96.7	104.5	103.8	104.8	94.8	97.3	95.3%	97.9	103.9	cell viability, IGR37 Parental, 1μΜ (IGR37 cells (parental); 1μΜ): 108.6; cell viability, A375 XP, 10μΜ ([3]; 10μΜ, 72 h, in %): 103.6; cell viability, A375 Parental, 1μΜ (A375 cells (parental); 1μΜ, 72 h, in %): 104.5; cell viability, A375 GP, 10μΜ ([6]; 10μΜ, 72 h, in %): 97.7
C[C@@H]1CCN(C(=O)CC#N)C[C@@H]1N(C)c1ncnc2[nH]ccc12.O=C(O)CC(O)(CC(=O)O)C(=O)O [Tofacitinib citrate (CP-690550 citrate)]									94.0	90.7	83.2%	104.3	107.1	103.3	103.5	93.7	93.7	94.9%	98.3	103.6	
O=C(O)c1ccc2c(c1)nc(Nc1cccc(Cl)c1)c1ccncc12 [cx-4945 (Silmitasertib)]	96.6	52.6	88.6	23.6%	96.8	93.9	31.8	55.9%													Cell viability in kinase inhibitor library screening, IGR37 Parental, 10μΜ (IGR37 cells (parental); 10μΜ): 86.7; Cell viability in kinase inhibitor library screening, IGR37 GP, 1μΜ ([5]; 1μΜ, 72 h, in %): 94.1; Cell viability in kinase inhibitor library screening, A375 GP, 1μΜ ([6]; 1μΜ, 72 h): 93.2
